Results: PMC11167047 (Cell Death Discovery, 2024)

Experiments:
Experiment in all cases: kinome screen (33PanQinase)
Assay type in all cases: biochemical
VEGFR2 = target: T1, VEGFR2 (Homo sapiens, UniProt P35968)
T1 construct: purchased Reaction Biology Europe GmbH (formerly ProQinase)
Experimental: (§1) The Kinome Screening was performed by Reaction Biology Europe GmbH (http://reactionbiology.com; Freiburg i. Br., Germany).

RON = target: T2, RON (Homo sapiens, UniProt Q04912)
T2 construct: purchased Reaction Biology Europe GmbH (formerly ProQinase)
Experimental: as §1

DDR2 = target: T3, DDR2 (Homo sapiens, UniProt Q16832)
T3 construct: purchased Reaction Biology Europe GmbH (formerly ProQinase)
T3 sequence (Q16832 22-855): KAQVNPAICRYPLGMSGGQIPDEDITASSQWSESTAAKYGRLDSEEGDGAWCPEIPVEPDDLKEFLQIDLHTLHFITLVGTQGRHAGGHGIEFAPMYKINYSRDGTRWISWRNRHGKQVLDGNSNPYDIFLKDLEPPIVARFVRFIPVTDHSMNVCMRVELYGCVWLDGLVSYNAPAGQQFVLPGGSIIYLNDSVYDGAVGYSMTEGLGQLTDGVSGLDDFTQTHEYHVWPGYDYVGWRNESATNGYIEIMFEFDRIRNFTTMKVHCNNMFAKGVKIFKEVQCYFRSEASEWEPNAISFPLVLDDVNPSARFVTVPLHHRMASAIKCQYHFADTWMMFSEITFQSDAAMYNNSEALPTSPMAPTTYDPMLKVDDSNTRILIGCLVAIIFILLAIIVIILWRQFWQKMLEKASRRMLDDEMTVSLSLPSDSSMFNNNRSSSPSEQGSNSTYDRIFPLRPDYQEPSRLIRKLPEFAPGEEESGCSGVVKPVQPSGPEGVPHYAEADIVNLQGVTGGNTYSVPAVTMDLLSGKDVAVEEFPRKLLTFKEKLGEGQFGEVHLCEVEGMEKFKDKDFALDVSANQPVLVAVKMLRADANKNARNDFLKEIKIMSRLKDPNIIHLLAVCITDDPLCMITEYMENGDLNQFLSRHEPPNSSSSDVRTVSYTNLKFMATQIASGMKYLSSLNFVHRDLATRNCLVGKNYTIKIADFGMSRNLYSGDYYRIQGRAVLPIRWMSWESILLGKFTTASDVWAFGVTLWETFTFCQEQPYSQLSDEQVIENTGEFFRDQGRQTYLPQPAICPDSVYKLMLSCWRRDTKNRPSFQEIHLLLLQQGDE
Experimental: as §1

MEK5 = target: T4, MEK5 (Homo sapiens, UniProt Q13163)
T4 construct: purchased Reaction Biology Europe GmbH (formerly ProQinase)
T4 sequence (Q13163 1-448): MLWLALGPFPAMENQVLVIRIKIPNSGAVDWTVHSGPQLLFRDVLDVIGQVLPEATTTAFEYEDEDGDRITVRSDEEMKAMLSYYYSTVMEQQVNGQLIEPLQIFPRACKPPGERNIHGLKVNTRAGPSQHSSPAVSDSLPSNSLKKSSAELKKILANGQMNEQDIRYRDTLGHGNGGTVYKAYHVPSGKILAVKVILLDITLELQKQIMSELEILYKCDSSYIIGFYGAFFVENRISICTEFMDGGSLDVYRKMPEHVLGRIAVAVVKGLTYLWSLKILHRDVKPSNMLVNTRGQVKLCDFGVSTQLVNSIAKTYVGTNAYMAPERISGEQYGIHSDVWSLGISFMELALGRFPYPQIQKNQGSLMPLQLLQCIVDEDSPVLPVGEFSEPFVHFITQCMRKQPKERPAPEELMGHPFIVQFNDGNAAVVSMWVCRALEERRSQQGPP
Experimental: as §1

STK17A = target: T5, STK17A (Homo sapiens, UniProt Q9UEE5)
T5 construct: purchased Reaction Biology Europe GmbH (formerly ProQinase)
T5 sequence (Q9UEE5 1-414): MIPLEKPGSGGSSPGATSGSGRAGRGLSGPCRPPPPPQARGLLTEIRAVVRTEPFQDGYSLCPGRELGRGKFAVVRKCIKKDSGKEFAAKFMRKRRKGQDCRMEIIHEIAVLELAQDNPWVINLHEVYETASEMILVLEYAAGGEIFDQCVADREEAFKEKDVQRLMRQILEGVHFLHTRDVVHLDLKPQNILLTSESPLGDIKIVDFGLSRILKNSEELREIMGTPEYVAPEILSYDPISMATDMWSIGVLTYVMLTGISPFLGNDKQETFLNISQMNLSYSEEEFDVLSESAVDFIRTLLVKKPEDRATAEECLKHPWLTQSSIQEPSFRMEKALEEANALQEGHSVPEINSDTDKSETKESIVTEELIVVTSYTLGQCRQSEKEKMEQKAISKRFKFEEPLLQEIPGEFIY
Experimental: as §1

EPHA5 = target: T6, EPHA5 (Homo sapiens, UniProt P54756)
T6 construct: purchased Reaction Biology Europe GmbH (formerly ProQinase)
Experimental: as §1

ERK2 = target: T7, ERK2 (Homo sapiens, UniProt P28482)
T7 construct: purchased Reaction Biology Europe GmbH (formerly ProQinase)
Experimental: as §1

CK1γ3 = target: T8, CK1γ3 (Homo sapiens, UniProt Q9Y6M4)
T8 construct: purchased Reaction Biology Europe GmbH (formerly ProQinase)
T8 sequence (Q9Y6M4 whole entry): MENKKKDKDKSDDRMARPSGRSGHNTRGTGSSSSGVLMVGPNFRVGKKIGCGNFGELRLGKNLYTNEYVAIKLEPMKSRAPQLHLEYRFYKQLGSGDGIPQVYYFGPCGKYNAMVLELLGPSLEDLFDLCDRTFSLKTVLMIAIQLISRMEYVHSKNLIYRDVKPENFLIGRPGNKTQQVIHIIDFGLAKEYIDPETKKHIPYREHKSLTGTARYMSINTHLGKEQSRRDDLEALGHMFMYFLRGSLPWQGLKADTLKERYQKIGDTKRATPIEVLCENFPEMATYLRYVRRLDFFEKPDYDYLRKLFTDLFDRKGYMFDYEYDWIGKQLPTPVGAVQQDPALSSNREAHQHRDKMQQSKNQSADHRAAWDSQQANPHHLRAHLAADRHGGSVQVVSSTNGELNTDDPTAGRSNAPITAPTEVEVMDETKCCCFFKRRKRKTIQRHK
Experimental: as §1

TTBK1 = target: T9, TTBK1 (Homo sapiens, UniProt Q5TCY1)
T9 construct: purchased Reaction Biology Europe GmbH (formerly ProQinase)
T9 sequence (Q5TCY1 whole entry): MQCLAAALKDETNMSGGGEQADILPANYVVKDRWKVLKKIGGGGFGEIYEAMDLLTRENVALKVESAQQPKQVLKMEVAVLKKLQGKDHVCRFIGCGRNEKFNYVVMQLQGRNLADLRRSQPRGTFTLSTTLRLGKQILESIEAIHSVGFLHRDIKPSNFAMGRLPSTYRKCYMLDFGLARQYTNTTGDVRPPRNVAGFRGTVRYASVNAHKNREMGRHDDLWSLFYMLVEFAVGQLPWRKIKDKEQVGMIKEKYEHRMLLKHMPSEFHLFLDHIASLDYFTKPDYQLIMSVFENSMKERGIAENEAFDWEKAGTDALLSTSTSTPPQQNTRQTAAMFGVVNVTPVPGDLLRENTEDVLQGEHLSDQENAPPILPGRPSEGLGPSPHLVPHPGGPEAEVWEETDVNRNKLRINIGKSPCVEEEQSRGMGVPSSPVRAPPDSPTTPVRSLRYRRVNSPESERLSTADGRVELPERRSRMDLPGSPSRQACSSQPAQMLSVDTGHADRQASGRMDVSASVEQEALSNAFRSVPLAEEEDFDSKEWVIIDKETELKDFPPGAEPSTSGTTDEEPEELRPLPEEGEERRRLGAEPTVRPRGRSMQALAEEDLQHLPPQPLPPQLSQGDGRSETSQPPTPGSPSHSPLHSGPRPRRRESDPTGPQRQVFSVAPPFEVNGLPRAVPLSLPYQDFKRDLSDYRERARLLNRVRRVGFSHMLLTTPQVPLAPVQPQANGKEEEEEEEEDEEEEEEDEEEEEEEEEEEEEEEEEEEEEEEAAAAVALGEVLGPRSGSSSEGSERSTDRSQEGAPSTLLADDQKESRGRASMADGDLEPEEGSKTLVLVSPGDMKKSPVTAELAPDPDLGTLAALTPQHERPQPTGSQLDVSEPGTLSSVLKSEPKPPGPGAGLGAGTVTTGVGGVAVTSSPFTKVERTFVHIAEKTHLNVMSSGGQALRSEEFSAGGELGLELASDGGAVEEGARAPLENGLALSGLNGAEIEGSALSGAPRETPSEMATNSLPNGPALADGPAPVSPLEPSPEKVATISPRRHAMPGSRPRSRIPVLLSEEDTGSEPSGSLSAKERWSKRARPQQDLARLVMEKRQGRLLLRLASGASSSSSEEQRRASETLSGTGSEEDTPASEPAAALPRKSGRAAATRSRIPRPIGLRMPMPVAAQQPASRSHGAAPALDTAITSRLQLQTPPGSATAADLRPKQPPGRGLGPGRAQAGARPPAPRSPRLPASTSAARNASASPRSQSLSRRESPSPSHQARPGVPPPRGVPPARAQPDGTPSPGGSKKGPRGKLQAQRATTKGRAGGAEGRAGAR
Experimental: as §1

SGK2 = target: T10, SGK2 (Homo sapiens, UniProt Q9HBY8)
T10 construct: purchased Reaction Biology Europe GmbH (formerly ProQinase)
T10 sequence (Q9HBY8 1-367): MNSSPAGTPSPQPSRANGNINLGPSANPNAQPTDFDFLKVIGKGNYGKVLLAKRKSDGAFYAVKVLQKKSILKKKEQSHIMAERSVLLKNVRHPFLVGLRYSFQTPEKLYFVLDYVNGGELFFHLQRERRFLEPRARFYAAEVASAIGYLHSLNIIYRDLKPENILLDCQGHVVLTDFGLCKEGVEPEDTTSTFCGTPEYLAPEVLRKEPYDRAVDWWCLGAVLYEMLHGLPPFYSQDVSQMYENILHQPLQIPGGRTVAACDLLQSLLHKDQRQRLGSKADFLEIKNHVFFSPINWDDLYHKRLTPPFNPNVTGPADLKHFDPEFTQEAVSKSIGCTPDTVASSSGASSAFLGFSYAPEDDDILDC
Experimental: as §1

MAP3K9 = target: T11, MAP3K9 (Homo sapiens, UniProt P80192)
T11 construct: purchased Reaction Biology Europe GmbH (formerly ProQinase)
T11 sequence (P80192 whole entry): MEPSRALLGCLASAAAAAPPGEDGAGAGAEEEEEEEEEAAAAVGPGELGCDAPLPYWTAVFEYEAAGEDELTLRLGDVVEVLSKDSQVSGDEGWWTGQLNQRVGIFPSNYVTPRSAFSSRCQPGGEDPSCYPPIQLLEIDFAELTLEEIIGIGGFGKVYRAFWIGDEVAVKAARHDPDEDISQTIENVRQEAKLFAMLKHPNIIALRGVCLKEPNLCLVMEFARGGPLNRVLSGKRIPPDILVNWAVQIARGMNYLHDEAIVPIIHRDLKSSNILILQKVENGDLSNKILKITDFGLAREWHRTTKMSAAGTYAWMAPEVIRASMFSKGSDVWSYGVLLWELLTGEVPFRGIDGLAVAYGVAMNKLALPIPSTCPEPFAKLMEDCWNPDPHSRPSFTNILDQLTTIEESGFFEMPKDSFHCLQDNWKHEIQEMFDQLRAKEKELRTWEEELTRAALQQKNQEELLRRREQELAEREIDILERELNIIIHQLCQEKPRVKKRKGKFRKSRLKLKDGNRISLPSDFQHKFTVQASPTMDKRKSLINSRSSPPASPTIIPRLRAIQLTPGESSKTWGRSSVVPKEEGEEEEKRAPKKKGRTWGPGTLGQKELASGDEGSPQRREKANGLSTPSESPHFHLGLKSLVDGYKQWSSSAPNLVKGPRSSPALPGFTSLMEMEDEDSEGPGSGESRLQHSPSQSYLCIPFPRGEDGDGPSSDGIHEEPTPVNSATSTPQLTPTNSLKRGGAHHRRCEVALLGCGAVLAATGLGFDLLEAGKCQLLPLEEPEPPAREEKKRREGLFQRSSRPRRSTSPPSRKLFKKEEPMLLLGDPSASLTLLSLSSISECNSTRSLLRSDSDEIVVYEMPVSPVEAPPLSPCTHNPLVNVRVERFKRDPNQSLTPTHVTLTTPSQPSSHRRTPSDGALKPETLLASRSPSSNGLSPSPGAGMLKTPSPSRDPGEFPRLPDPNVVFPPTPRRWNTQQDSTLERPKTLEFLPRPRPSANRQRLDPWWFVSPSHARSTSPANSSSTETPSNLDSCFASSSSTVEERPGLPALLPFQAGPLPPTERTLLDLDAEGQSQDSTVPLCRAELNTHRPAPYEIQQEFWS
Experimental: as §1

CDK2/CycE1 = target: T12, CDK2/CycE1 (Homo sapiens, UniProt P24941)
T12 construct: purchased Reaction Biology Europe GmbH (formerly ProQinase)
Experimental: as §1

SNK = target: T13, SNK (Homo sapiens, UniProt Q9NYY3)
T13 construct: purchased Reaction Biology Europe GmbH (formerly ProQinase)
T13 sequence (Q9NYY3 whole entry): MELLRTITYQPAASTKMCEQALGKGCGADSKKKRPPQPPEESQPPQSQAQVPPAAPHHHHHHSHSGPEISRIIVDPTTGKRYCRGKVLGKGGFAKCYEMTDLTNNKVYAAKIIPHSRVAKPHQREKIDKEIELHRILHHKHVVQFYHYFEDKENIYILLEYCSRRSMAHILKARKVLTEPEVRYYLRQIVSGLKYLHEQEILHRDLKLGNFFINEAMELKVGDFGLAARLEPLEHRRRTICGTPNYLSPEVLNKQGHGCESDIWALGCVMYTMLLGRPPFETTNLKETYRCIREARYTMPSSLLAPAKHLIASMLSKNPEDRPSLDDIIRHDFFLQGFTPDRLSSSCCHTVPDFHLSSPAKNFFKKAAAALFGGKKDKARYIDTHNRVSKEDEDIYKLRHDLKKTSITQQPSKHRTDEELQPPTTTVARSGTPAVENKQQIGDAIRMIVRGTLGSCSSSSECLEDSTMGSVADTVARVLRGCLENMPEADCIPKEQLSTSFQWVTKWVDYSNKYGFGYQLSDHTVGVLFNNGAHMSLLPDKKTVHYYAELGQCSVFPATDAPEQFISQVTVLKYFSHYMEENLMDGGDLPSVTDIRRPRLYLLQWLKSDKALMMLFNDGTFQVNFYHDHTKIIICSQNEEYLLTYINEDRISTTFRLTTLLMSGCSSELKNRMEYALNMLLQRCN
Experimental: as §1

T1 sequence (P35968 20-1356): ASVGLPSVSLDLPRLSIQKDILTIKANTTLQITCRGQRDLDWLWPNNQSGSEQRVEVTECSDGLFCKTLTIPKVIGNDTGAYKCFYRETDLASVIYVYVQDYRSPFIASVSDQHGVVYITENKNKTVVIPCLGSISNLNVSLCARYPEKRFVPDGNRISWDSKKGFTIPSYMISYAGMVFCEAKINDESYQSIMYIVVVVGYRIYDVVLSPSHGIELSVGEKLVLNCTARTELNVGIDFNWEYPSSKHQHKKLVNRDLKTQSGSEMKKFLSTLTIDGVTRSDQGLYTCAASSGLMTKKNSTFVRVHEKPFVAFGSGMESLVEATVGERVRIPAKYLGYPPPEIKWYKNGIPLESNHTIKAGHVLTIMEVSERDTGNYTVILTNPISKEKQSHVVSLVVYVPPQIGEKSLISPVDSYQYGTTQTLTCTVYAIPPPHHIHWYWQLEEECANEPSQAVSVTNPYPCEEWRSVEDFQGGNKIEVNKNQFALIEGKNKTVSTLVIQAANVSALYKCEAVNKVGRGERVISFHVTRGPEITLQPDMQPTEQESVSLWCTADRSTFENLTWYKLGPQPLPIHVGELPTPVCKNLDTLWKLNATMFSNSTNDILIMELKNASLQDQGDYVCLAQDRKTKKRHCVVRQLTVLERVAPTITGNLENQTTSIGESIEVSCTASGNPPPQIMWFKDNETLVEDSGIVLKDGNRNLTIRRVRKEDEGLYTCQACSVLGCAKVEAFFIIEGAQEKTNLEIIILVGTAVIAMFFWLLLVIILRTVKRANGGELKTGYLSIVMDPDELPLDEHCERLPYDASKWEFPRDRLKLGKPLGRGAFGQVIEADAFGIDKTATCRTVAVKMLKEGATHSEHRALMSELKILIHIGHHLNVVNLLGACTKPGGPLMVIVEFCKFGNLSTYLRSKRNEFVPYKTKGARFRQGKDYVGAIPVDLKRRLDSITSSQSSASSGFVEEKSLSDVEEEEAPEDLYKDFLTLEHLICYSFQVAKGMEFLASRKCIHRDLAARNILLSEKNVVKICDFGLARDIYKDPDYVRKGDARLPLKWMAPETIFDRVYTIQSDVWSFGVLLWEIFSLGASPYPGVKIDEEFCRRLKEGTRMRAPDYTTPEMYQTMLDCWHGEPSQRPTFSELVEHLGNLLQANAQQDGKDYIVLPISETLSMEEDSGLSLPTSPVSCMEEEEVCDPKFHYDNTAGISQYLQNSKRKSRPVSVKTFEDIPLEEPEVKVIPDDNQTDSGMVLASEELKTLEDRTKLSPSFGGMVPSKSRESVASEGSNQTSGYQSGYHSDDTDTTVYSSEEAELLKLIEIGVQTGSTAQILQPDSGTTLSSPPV

Structure (SMILES)	residual kinase activity (VEGFR2; 0.3 µM)	residual kinase activity (RON; 0.3 µM)	residual kinase activity (DDR2; 0.3 µM)	residual kinase activity (MEK5; 0.3 µM)	residual kinase activity (STK17A; 0.3 µM)	residual kinase activity (EPHA5; 0.3 µM)	residual kinase activity (ERK2; 0.3 µM)	residual kinase activity (CK1γ3; 0.3 µM)	residual kinase activity (TTBK1; 0.3 µM)	residual kinase activity (SGK2; 0.3 µM)	residual kinase activity (MAP3K9; 0.3 µM)	residual kinase activity (CDK2/CycE1; 0.3 µM)	residual kinase activity (SNK; 0.3 µM)	further results
COc1ccnc2[nH]cc(-c3cc(N)nc(N)c3)c12 [meriolin 16]	98 % of control	90 % of control	93 % of control	31 % of control	23 % of control	102 % of control	87 % of control	22 % of control	108 % of control	74 % of control	80 % of control	0 % of control	98 % of control	residual kinase activity (VEGFR2; 0.03 µM): 102 % of control; residual kinase activity (RON; 0.03 µM): 92 % of control; residual kinase activity (DDR2; 0.03 µM): 105 % of control; residual kinase activity (MEK5; 0.03 µM): 35 % of control; residual kinase activity (STK17A; 0.03 µM): 83 % of control; residual kinase activity (EPHA5; 0.03 µM): 115 % of control; residual kinase activity (ERK2; 0.03 µM): 103 % of control; residual kinase activity (CK1γ3; 0.03 µM): 77 % of control; residual kinase activity (TTBK1; 0.03 µM): 116 % of control; residual kinase activity (SGK2; 0.03 µM): 97 % of control; residual kinase activity (MAP3K9; 0.03 µM): 95 % of control; residual kinase activity (CDK2/CycE1; 0.03 µM): 16 % of control; residual kinase activity (SNK; 0.03 µM): 96 % of control
c1ccc(CNc2cc(-c3c[nH]c4ncccc34)ccn2)cc1 [meriolin 36]	60 % of control	98 % of control	59 % of control	30 % of control	23 % of control	146 % of control	79 % of control	49 % of control	101 % of control	88 % of control	57 % of control	1 % of control	94 % of control	residual kinase activity (VEGFR2; 3 µM): 19 % of control; residual kinase activity (RON; 3 µM): 76 % of control; residual kinase activity (DDR2; 3 µM): 17 % of control; residual kinase activity (MEK5; 3 µM): 12 % of control; residual kinase activity (STK17A; 3 µM): 4 % of control; residual kinase activity (EPHA5; 3 µM): 84 % of control; residual kinase activity (ERK2; 3 µM): 30 % of control; residual kinase activity (CK1γ3; 3 µM): 9 % of control; residual kinase activity (TTBK1; 3 µM): 77 % of control; residual kinase activity (SGK2; 3 µM): 32 % of control; residual kinase activity (MAP3K9; 3 µM): 12 % of control; residual kinase activity (CDK2/CycE1; 3 µM): 1 % of control; residual kinase activity (SNK; 3 µM): 43 % of control
